Source: patent US5776912A, “Lipophilic oligosaccharide antibiotic compositions” (Schering Corporation, priority 1996, dated 1998)
Structures can show the parent of a compound that is named as a salt. Where two headings read alike, the source gives them in different places.

Tests used:
E. faecalis 88032810 = experiment: Mouse protection model, PD50 (Table 4), E. faecalis 88032810; format: in vivo, Enterococcus faecalis (infection in CF1 mice); conditions: read-out: PD50
Description: (§1) PD 50 Valves Showing Efficacy of Composition Containing the
(§2) Compound of Formula III Against Bacterial Infections^1 in CF1
(§3) ^1 Injections were by IP route
(§4) ^2 CFI mice are Charles River CFI, ca 20 g while male mice
(§5) ^4 PD50 Dosing routes for drugs: IV for A, B and C; SC for D in
(§6) ^5. Multiple of one LD100 (lethal dose to kill 100% of animals) of
(§7) organism given to mice. (Measure of severity of the infection.)
(§8) See Table 4 for PD50 values for the compositions of the compound of formula III including a preferred composition of the present invention (Drug B) compared to those for vancomycin (Drug C) and amikacin (drug D).

[1] = test system: E. faecalis 91031103 (Vancomycin resistant); experiment: Mouse protection model, PD50 (Table 4), vancomycin resistant E. faecalis 91031103; format: in vivo, Enterococcus faecalis (infection in CF1 mice); conditions: Enterococcus faecalis, read-out: PD50
Description: as §1, §2, §3, §4, §5, §6, §7, §8

S. aureus 85111205 = experiment: Mouse protection model, PD50 (Table 4), S. aureus 85111205; format: in vivo, Staphylococcus aureus (infection in CF1 mice); conditions: Staphylococcus aureus, 85111205, iv, read-out: PD50
Description: as §1, §2, §3, §4, §5, §6, §7, §8

S. aureus 78100502 = experiment: Mouse protection model, PD50 (Table 4), S. aureus 78100502; format: in vivo, Staphylococcus aureus (infection in CF1 mice); conditions: Staphylococcus aureus, drug IV, 20 × LD, 2.2 × 10^8 CFU/mouse IP
Description: as §1, §2, §3, §4, §5, §6, §7, §8

[2] = test system: enterococci resistant to vancomycin; experiment: microbe, parasite or virus in culture; format: cell-based
[3] = Formation of aqueous solutions; format: physicochemical; conditions: in water
[4] = test system: methicillin-resistant staphylococci; format: cell-based
[5] = test system: methicillin-susceptible staphylococci; experiment: Agar dilution MIC, methicillin-susceptible staphylococci; format: cell-based
Enterococcus faecalis = experiment: Agar dilution MIC, Enterococcus faecalis; format: cell-based; conditions: printed for E. faecalis and E. faecium together
Enterococcus faecium = experiment: Agar dilution MIC, Enterococcus faecium; format: cell-based; conditions: printed for E. faecalis and E. faecium together
[6] = test system: various strains of streptococci; experiment: Agar dilution MIC, streptococci; format: cell-based
Borrelia burgdorferi = experiment: MIC, Borrelia burgdorferi; format: cell-based
Legionella pneumophila = format: cell-based
L. longbeacheae = experiment: MIC, L. longbeacheae; format: cell-based
gram-negative bacteria = experiment: Agar dilution MIC, gram-negative bacteria; format: cell-based
Trichomonas vaginalis = experiment: MIC, Trichomonas vaginalis; format: cell-based
Mycoplasma sp. = experiment: MIC, Mycoplasma sp.; format: cell-based
bacteria = format: cell-based
[7] = test system: various clinical and laboratory strains of staphylococci; experiment: Bactericidal activity, staphylococci; format: cell-based
[8] = pH of aqueous solutions formed with bases; format: physicochemical
[9] = agar dilution, Mueller-Hinton agar

NCC[C@H](O)C(=O)N[C@@H]1C[C@H](N)[C@@H](O[C@H]2O[C@H](CN)[C@@H](O)[C@H](O)[C@H]2O)[C@H](O)[C@H]1O[C@H]1O[C@H](CO)[C@@H](O)[C@H](N)[C@H]1O [Drug D, Amikacin]
ED50 (E. faecalis 88032810; Enterococcus faecalis, 88032810, drug SC, 10 × LD, 9.7 × 10^8 CFU/mouse IP): 115 mg/kg | ED50 ([1]; drug SC, 1.7 × LD, 1.5 × 10^9 CFU/mouse IP): 49 mg/kg

CN[C@H](CC(C)C)C(=O)N[C@H]1C(=O)N[C@@H](CC(N)=O)C(=O)N[C@H]2C(=O)N[C@H]3C(=O)N[C@H](C(=O)N[C@H](C(=O)O)c4cc(O)cc(O)c4-c4cc3ccc4O)[C@H](O)c3ccc(c(Cl)c3)Oc3cc2cc(c3O[C@@H]2O[C@H](CO)[C@@H](O)[C@H](O)[C@H]2O[C@H]2C[C@](C)(N)[C@H](O)[C@H](C)O2)Oc2ccc(cc2Cl)[C@H]1O [Drug C, Vancomycin HCl]
ED50 (S. aureus 85111205): 26 mg/kg | ED50 (S. aureus 78100502): 6 mg/kg | ED50 (E. faecalis 88032810; Enterococcus faecalis, 88032810, iv): 10 mg/kg | ED50 ([1]; iv): 100 mg/kg | MIC ([2]; read-out: MICs): > 128 µg/mL

[Ba+2].[OH-].[OH-] [barium hydroxide]
formation of aqueous solution [3]: did not form aqueous solutions

56-deacetyl-57-demethyl-45-O-de(2-methyl-1 -oxopropyl)-12-O-(2,3,6-trideoxy-3-C-methyl-4-O-methyl-3-nitro-α-L-arabino-hexopyransoyl)-flambamycin 56-(2,4-dihydroxy-6-methylbenzoate) [compound of Formula III]
GMM (geometric mean MIC) [4, 9]: 0.1 µg/mL | potency relative to vancomycin ([4]; more potent than vancomycin): 2 fold | GMM (geometric mean MIC) [5, 9]: 0.5 µg/mL | potency relative to vancomycin ([5]; more potent than vancomycin): 2 fold | GMM (geometric mean MIC) (Enterococcus faecalis): 0.49 µg/mL | GMM (geometric mean MIC) (Enterococcus faecium): 0.49 µg/mL | activity (in words) ([2]; enterococci resistant to vancomycin): good activity | MICs [6]: < 0.5 µg/mL | MICs (Borrelia burgdorferi): < 0.49 µg/mL | MICs (Legionella pneumophila): 2.5 µg/mL | MICs (L. longbeacheae): 2.5 µg/mL | GMM (geometric mean MIC) (gram-negative bacteria): > 760 µg/mL | MICs (Trichomonas vaginalis): > 192 µg/mL | MICs (Mycoplasma sp.): 200 µg/mL | cross resistance with other antibiotics (bacteria): No cross resistance with other antibiotics was observed | bactericidal activity [7]: moderate bactericidal activity

NCCCC[C@H](N)C(=O)O [Lysine]
pH of aqueous solution [8]: less than 9.3

[Ca+2].[OH-].[OH-] [calcium hydroxide]
formation of aqueous solution [3]: did not form aqueous solutions
